Experimental data published in PMC5301048, “Selection and early clinical evaluation of the brain‐penetrant 11β‐hydroxysteroid dehydrogenase type 1 (11β‐HSD1) inhibitor UE2343 (Xanamem™)” (British Journal of Pharmacology, 2017).
Read-outs that look alike come from different tables or passages of the source.

Columns and labels:
[1] = Plasma protein binding, rat plasma; assay type: in vitro ADME; settings: mean ± SD [n]
[2] = system: 29 enzymes and 72 receptors, including the glucocorticoid and mineralocorticoid receptors; test: Off-target diversity screen (data not shown); settings: in words
11β‐HSD1 in the liver = test: Single ascending dose study, urinary THFs/THE ratio; assay type: in vivo; settings: human
Procedure: A double‐blind, randomized, placebo‐controlled single ascending dose study was carried out at Simbec Research Ltd, Merthyr Tydfil, UK. Each cohort consisted of six healthy male subjects and two females of non‐child bearing potential. Two male ‘dose leader’ subjects (1 active : 1 placebo) were dosed first in each cohort. The remainder of the cohort (5 active : 1 placebo) were dosed 24 h later. Dose cohorts were 2, 5, 10, 18, 25 and 35 mg. Safety, pharmacokinetic and pharmacodynamic assessments were made at pre‐determined time‐points during each part of the study. Dose escalation was dependent upon satisfactory review of the blinded safety (up to Day 6) and pharmacokinetic (up to 24 h post‐dose) data from the preceding cohort.
(§1) Laboratory evaluation of clinical safety parameters was carried out using standard validated methods. Measurement of plasma pharmacodynamic markers [adrenocorticotropic hormone (ACTH), cortisol, 4‐androstenedione, testosterone and dehydroepiandrosterone sulphate (DHEA‐s)] was carried out using commercially available kits. Each method was fully validated prior to analysis. Urinary steroid metabolites were measured according to established methods (Boonen et al., 2013). UE2343 levels in plasma, urine and CSF was determined by LC–MS/MS using fully validated methods.
(§2) The data and statistical analysis comply with the recommendations on experimental design and analysis in pharmacology (Curtis et al., 2015). Levels of probability, P < 0.05 were deemed to constitute the threshold for statistical significance. Pharmacokinetic parameters, except Tmax (time of maximum observed drug concentration), are given as mean ± coefficient of variation (CV%). Tmax is given as median ± range. For each of the pharmacodynamic parameters [ACTH, cortisol, adrenal androgens, tetrahydrocortisols (THFs)/tetrahydrocortisone (THE) ratio], the maximum % change from baseline for each subject was subjected to ANOVA. For selected data, an additional covariate factor for the baseline was also included in the ANOVA/analysis of covariance (ANCOVA) model. Associated P‐values <0.05 for each comparison have been presented.
11β‐HSD1 is predominantly located in the liver and adipose tissue. Cortisol (F) and cortisone (E) are cleared from the liver via the enzymes 5α‐reductase and 3α‐HSD to generate tetrahydro (TH) metabolites that are eliminated in the urine. Measurement of urinary TH metabolite ratios thus provides a surrogate measure of 11β‐HSD1 inhibition in the liver (Best and Walker, 1997). Following a single dose of UE2343, there was a statistically significant reduction in the urinary THFs/THE ratio between 0 and 4 h at doses of 18, 25 and 35 mg, equating to a reduction of 58, 55 and 50% respectively (Figure 4A).

[3] = CSF study, plasma and CSF pharmacokinetics; assay type: in vivo; settings: human; for Tmax: median (range); for Kp at 5 h / concentration at 5 h / Cmax / half-life / AUC(0-t): 35 mg; for concentration at 5 h: CSF; for AUC(0-t): read-out: AUC0–12h
Procedure: A non‐randomized, open label, multiple dose phase I study to determine the pharmacokinetic parameters of UE2343 in CSF was carried out at Linear Clinical Research Ltd, Nedlands, Australia. Four healthy male subjects each received 35 mg UE2343 b.i.d (12 hourly) fed (30 min after the start of a standard meal) for 3 days (Day 1 to Day 3) and once on the morning of Day 4 (seven doses in total). Plasma pharmacokinetic samples were taken from each subject on Day 1 and Day 4. A single CSF sample was taken from each subject at 5 h post‐final dose on Day 4, corresponding to the plasma Tmax (time to maximum plasma concentration).
as §1, §2

CYP1A2 = molecular target: T1, CYP1A2 (Homo sapiens, UniProt P05177); test: Cytochrome P450 inhibition, CYP1A2; assay type: in vitro ADME; settings: human liver microsomes; read-out: CYP450 isoform 1A2 IC50
T1 construct: tissue Cyprotex Discovery Limited; host or cells: human liver microsomes
T1 sequence (P05177 1-516): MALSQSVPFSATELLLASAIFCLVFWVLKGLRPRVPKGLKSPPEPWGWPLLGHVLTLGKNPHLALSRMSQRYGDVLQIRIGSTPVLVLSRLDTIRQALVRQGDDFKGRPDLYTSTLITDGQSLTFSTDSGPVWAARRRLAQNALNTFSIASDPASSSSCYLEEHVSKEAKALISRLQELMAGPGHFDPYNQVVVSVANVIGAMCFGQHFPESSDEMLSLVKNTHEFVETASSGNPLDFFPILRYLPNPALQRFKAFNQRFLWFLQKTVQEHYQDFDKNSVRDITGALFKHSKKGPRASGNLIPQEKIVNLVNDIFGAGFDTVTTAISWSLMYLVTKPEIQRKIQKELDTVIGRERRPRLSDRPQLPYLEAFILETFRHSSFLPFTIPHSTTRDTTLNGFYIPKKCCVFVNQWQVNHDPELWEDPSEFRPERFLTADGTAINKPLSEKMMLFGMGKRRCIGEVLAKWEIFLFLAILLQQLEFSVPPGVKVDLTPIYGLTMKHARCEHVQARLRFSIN
Procedure: Testing was performed by Cyprotex Discovery Limited, Cheshire, UK. Six test compound concentrations (0.4, 1, 4, 10, 40 and 100 μM; final DMSO concentration 0.25%, final microsome concentration 0.25 mg·mL^−1) were either pre‐incubated for 30 min in the absence and presence of NADPH or underwent a 0 min pre‐incubation with human liver microsomes. At the end of the pre‐incubation period, the probe substrate for each cytochrome P450 (CYP450) isoform (30 μM) and NADPH (1 mM) were then added (final DMSO concentration 0.3%), and the samples were incubated for 5 min at 37°C. Probe substrates were as follows: 1A2 – phenacetin, 2C9 – diclofenac, 2C19 – mephenytoin, 2D6 – dextromethorphan, 3A4 – midazolam and testosterone. Samples were subjected to LC–MS/MS analysis to determine metabolite concentrations. A decrease in the formation of the metabolite compared with vehicle control was used to calculate an IC50 value (test compound concentration which produces 50% inhibition) for each experimental condition.

[4] = male, plasma, oral, 35 mg b.i.d, Day 1, mean (CV%)
[5] = male, plasma, oral, 35 mg b.i.d, Day 4, mean (CV%)

Plasma protein binding (% unbound), rat [1]: 26 ± 0 [2] % unbound
off‐target profile in diversity screen [2]: clean off‐target profile
CCSF, 5h (concentration in CSF) ([3]; 35 mg b.i.d, Day 4, 5 h post-dose, mean (CV%), listed as UE2343): 69.8 (44%) ng·mL^−1
Tmax ([3]; 35 mg b.i.d, Day 4): 5.1 (3–5) h
extent of accumulation in plasma after repeated dosing ([3]; 35 mg b.i.d, Day 4 vs Day 1): 3.3 fold
time post‐dose at which mean Cmax was reached ([3]; 35 mg b.i.d, Days 1 and 4): 5 h
CSF concentration relative to IC50 at Cmin ([3]; 35 mg twice daily, in words): more than fivefold
CSF concentration relative to IC50 at Cmax ([3]; 35 mg twice daily, in words, listed as UE2343): up to ninefold greater
Kp at 5 h ([3]; male, CSF (relative to free plasma), oral, 35 mg b.i.d, Day 4, read-out: CSF levels as % of the free plasma levels, range): 0.25 to 0.4
Kp at 5 h ([3]; male, CSF (relative to free plasma), oral, 35 mg b.i.d, at plasma Cmax on Day 4, read-out: mean CSF levels as % of the free plasma levels): 0.33
Kp at 5 h ([3]; male, CSF (relative to total plasma), oral, 35 mg b.i.d, Day 4, read-out: CSF concentration as % of simultaneous total plasma levels, range): 0.0746 to 0.119
Kp at 5 h ([3]; male, CSF (relative to total plasma), oral, 35 mg b.i.d, at plasma Cmax on Day 4, read-out: mean CSF levels as % of the total plasma levels): 0.1
concentration at 5 h ([3]; male, oral, 35 mg b.i.d, Day 4, 5 h post-dose, mean (CV%), read-out: CCSF, 5h (concentration in CSF)): 69.8 ng/mL
concentration at 5 h ([3]; male, oral, 35 mg b.i.d, Day 4, 5 h post-dose, read-out: concentration in the CSF, range over subjects): 41.2 to 99.9 ng/mL
Cmax [3, 4]: 235 ng/mL
half-life [3, 4]: 6.24 h
AUC(0-t) [3, 4]: 1710 ng·h/mL
Cmax [3, 5]: 708 ng/mL
half-life [3, 5]: 8.97 h
AUC(0-t) [3, 5]: 5670 ng·h/mL
Tmax ([3]; male, plasma, oral, 35 mg b.i.d, Day 1, read-out: Tmax): 5.1 h
IC50 (CYP1A2): > 50 µM
Structure (SMILES): O=C(c1csc(-c2cn[nH]c2)c1)N1C2CCC1CC(O)(c1ncccn1)C2 (centres unmarked) [compound 4]
reduction in the urinary THFs/THE ratio (11β‐HSD1 in the liver; single dose 10 mg, 4–8 h): 79%
reduction in the urinary THFs/THE ratio (11β‐HSD1 in the liver; single dose 18 mg, 0–4 h): 58%
reduction in the urinary THFs/THE ratio (11β‐HSD1 in the liver; single dose 18 mg, 4–8 h): 86%
reduction in the urinary THFs/THE ratio (11β‐HSD1 in the liver; single dose 25 mg, 0–4 h): 55%
reduction in the urinary THFs/THE ratio (11β‐HSD1 in the liver; single dose 25 mg, 4–8 h): 83%
reduction in the urinary THFs/THE ratio (11β‐HSD1 in the liver; single dose 35 mg, 0–4 h): 50%
reduction in the urinary THFs/THE ratio (11β‐HSD1 in the liver; single dose 35 mg, 4–8 h): 83%
